# In PMC4216217 (Journal of Medicinal Chemistry, 2014):
# Like-named read-outs stand apart in the source and are kept apart here.
# Key:
# [1] = molecular target: rat D3 dopamine receptors (Rattus norvegicus, UniProt P19020); test: biochemical; type: binding
# human D3 receptor = human D3 receptor (Homo sapiens, UniProt P35462); test: cell-based; type: cell-based
# rat D2-like receptors = rat D2-like receptors (Rattus norvegicus, UniProt P61169); test: biochemical; type: binding
# Chain of rat D2-like receptors (P61169 1-415 isoform P61169-2): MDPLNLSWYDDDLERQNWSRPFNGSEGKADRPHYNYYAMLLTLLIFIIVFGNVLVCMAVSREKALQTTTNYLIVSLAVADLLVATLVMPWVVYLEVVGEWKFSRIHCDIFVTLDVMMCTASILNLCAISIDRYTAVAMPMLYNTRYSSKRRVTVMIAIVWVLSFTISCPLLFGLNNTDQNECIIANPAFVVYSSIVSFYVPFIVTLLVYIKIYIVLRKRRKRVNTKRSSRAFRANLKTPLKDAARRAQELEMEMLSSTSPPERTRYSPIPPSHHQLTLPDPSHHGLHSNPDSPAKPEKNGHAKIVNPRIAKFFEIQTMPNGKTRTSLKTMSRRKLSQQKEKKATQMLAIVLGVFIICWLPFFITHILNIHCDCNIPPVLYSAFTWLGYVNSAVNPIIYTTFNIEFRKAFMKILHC
# Chain of human D3 receptor (P35462 whole entry): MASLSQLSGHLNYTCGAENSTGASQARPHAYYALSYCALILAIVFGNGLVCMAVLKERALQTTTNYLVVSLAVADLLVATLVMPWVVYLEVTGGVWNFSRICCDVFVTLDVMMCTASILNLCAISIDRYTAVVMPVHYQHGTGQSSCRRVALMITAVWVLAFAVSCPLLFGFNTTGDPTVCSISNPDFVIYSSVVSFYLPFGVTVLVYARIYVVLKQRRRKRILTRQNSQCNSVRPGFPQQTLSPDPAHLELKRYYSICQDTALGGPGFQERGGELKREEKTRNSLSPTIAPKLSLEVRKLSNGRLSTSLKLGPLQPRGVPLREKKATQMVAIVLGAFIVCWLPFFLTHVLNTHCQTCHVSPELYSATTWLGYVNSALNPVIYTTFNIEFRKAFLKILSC
# Chain of rat D3 dopamine receptors (P19020 whole entry): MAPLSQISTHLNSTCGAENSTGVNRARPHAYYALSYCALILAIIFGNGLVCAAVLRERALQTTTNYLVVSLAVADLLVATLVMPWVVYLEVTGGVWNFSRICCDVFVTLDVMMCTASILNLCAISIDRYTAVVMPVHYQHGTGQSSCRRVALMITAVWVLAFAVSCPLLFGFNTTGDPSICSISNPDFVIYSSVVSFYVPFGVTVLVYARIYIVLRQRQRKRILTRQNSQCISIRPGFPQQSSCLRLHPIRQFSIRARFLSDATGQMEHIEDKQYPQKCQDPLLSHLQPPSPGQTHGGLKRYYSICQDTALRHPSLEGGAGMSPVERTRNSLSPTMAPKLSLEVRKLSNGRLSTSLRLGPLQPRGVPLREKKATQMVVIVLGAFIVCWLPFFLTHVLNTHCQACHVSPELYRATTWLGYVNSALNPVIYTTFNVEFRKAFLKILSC
smiles,measurement,setting,value
"CCCN(CC[C@]1(O)C[C@@H](NC(=O)c2ccc3ccccc3c2)C1)[C@H]1C[C@@H]1c1ccccc1 [(1S,2R)-10, N-(cis-3-Hydroxy-3-(2-(((1S,2R)-2-phenylcyclopropyl)(propyl)-amino)ethyl)cyclobutyl)-2-naphthamide]",selectivity for rat D3 receptor over rat D2 receptor,[1],20–30 fold
"CCCN(CC[C@]1(O)C[C@@H](NC(=O)c2ccc3ccccc3c2)C1)[C@@H]1C[C@H]1c1ccc(Cl)cc1 [(1R,2S)-11, N-(cis-3-(2-(((1R,2S)-2-(4-Chlorophenyl)cyclopropyl)(propyl)-amino)ethyl)-3-hydroxycyclobutyl)-2-naphthamide]",EC50,human D3 receptor,> 100000 nM
same,slope of the Schild plot,human D3 receptor; D3 activity stimulated by pramipexole,−0.83
same,EC50,"human D3 receptor; read-out: agonist activity ED50, β-arrestin binding to human D3, U2OS",> 100000 nM
same,agonist activity,"human D3 receptor; β-arrestin binding to human D3, in words",no agonist activity
same,binding to the rat D2 receptor,rat D2-like receptors,no appreciable binding
"CCCN(CC[C@]1(O)C[C@@H](NC(=O)c2ccc3ccccc3c2)C1)C1CC1c1ccc(Cl)cc1 (relative stereo) [(±)-11, N-(cis-3-(2-((((±)-trans)-2-(4-Chlorophenyl)cyclopropyl)(propyl)-amino)ethyl)-3-hydroxycyclobutyl)-2-naphthamide]",Ki,rat D2-like receptors,> 100000 nM
same,binding to the rat D2 receptor,rat D2-like receptors,neither compound showing measurable binding
"CCCN(CC[C@]1(O)C[C@@H](NC(=O)c2ccc3ccccc3c2)C1)[C@H]1C[C@@H]1c1ccccc1Cl (relative stereo) [(±)-12, N-(cis-3-(2-((((±)-trans)-2-(2-Chlorophenyl)cyclopropyl)(propyl)-amino)ethyl)-3-hydroxycyclobutyl)-2-naphthamide]",Ki,rat D2-like receptors,503 ± 63 nM
"CCCN(CC[C@]1(O)C[C@@H](NC(=O)c2ccc3ccccc3c2)C1)[C@H]1C[C@@H]1c1cccc(Cl)c1 (relative stereo) [(±)-13, N-(cis-3-(2-((((±)-trans)-2-(3-Chlorophenyl)cyclopropyl)(propyl)-amino)ethyl)-3-hydroxycyclobutyl)-2-naphthamide]",binding to the rat D2 receptor,rat D2-like receptors; at 100 μM,neither compound showing measurable binding
same,selectivity D3/D2,[1],>29000
same,selectivity for rat D3 receptor over rat D2 receptor,[1],> 10000
same,Ki,"[1]; Ki ± SEM, D3",26 nM
"CCCN(CC[C@]1(O)C[C@@H](NC(=O)c2ccc3ccccc3c2)C1)[C@@H]1C[C@H]1c1ccccc1 [(1R,2S)-10, N-(cis-3-Hydroxy-3-(2-(((1R,2S)-2-phenylcyclopropyl)(propyl)amino)-ethyl)cyclobutyl)-2-naphthamide]",selectivity for rat D3 receptor over rat D2 receptor,[1],20–30 fold
"CCCN[C@H]1C[C@@H]1c1ccccc1 [(1S,2R)-9, (1S,2R)-2-Phenyl-N-propylcyclopropanamine]",selectivity for rat D3 receptor over rat D2 receptor,[1],approximately 80 fold
"CCCN[C@@H]1C[C@H]1c1ccccc1 [(1R,2S)-9, (1R,2S)-2-Phenyl-N-propylcyclopropanamine]",selectivity for rat D3 receptor over rat D2 receptor,[1],approximately 80 fold
